One series relates to IL-1β. The experiment in a line: IL-1β levels in paw tissue and serum of adjuvant arthritis rat (ELISA). The following applies: administered in combination with CAI. Type of series: in vivo. On the procedure: The adjuvant arthritis rat was prepared as described in example 8. Treatment was performed as described in example 8. Blood was collected from eve socket on day 29 and left in room temperature to allow coagulating. Then serum was separated by centrifugation at 3000 rpm for 10 min and kept in −20° C. After animals were sacrificed, the subcutaneous tissue of the right hind paw and that surrounding the tarsotibial joints was removed, broke into pieces, and placed in 5 ml normal saline (0.9%). The tissues were homogenized in a high speed homogenizer. Then the homogenate was centrifuged at 4° C. and 10,000 rpm for 15 min. The supernatants were collected and stored at −20° C. until further analysis.
(§1) IL-1β and TNF-α levels in paw tissue and serum were measured using specific rat ELISA kits according to the manufacturer's instructions.
A general note: ELISA stands for enzyme-linked immunosorbent assay.

For the next series, the system named is TNF-α. As to the kind of experiment: TNF-α levels in paw tissue and serum of adjuvant arthritis rat (ELISA). The conditions noted are these: administered in combination with CAI. Type of series: in vivo. On the procedure:
Blood was collected from eve socket on day 29 and left in room temperature to allow coagulating. Then serum was separated by centrifugation at 3000 rpm for 10 min and kept in −20° C. After animals were sacrificed, the subcutaneous tissue of the right hind paw and that surrounding the tarsotibial joints was removed, broke into pieces, and placed in 5 ml normal saline (0.9%). The tissues were homogenized in a high speed homogenizer. Then the homogenate was centrifuged at 4° C. and 10,000 rpm for 15 min. The supernatants were collected and stored at −20° C. until further analysis.
as §1

Another series deals with rats. The experiment in a line: Granulomatous tissue formation (implanted tampon). Type of series: in vivo. The conditions noted are these: 7 days; CAI 20 mg/kg/day p.o.; dexamethasone 0.067 mg/kg/day i.p. The protocol: 44 rats (160 g) were randomly divided into 4 groups (11 rats/group). Animals were slightly anaesthetized by ether. After sterilization, the groin was cut bilaterally. A sterile tampon (50 mg) was implanted (sc). On the same day, the following treatments were administered: N.S. (i.p., control group), 0.067 mg/kg/day dexamethasone (i.p., positive control), 20 mg/kg/day CAI (p.o., dissolved in PEG 400, test group) and 0.067 mg/kg/day dexamethasone+20 mg/kg/day CAI (p.o., dissolved in PEG 400, combination group). After 7 days administration, the animals were sacrificed. The cotton was removed. The granulomatous tissue was dried at 60° C. oven for 12 hr and weighed. Increment in the dry weight of the tissue was taken as measure of granuloma formation. The Increment was adjusted for respective body weight, and the mean value for each group was calculated.

The test system of series [1] is Kunming mice. The experiment in a line: Croton oil-induced ear edema mouse model. Type of series: in vivo. The following applies: ear weight difference 4 hours after 2% croton oil; CAI/analogs 2 mg/ml ig, dexamethasone 0.2 mg/ml ip, 0.1 ml/10 g/day, 3 days. On the procedure: Male Kunming mice, weighted 18-22 g, were randomly divided to the following experiment groups, 20 mice/group:
Negative control: normal saline was injected (ig), 0.1 ml/10 g/day for 3 consecutive days.
Vehicle control: PEG400 was injected (ig), […] for 3 consecutive days.
Positive control: Dexamethasone (0.2 mg/ml) was injected (ip), 0.1 ml/10 g/day for 3 consecutive days.
Test group: CAI or its analogs (2 mg/ml, analogs are as described in example 5) was administered (ig), 0.1 ml/10 g/day for 3 consecutive days.
8 hours after the last administration, 20 μl of croton oil solution (2%) was applied to the right ear of each mouse. The left ear remained untreated as control. The animals were sacrificed 4 hours later, and a piece of tissue was punched from the same position of the treated and untreated ear. The tissues were weighed on a 0.1 mg balance. The difference in weight between the two pieces of tissue of each mouse was taken as a measure of swelling intensity.

The next series has as its system Wistar rats. The experiment in a line: Adjuvant induced arthritis (AA) of rat, paw oedema. Type of series: in vivo. The protocol: Negative control (AA+NS): […] positive control (AA+Dex): dexamethasone, i.p., 0.067 mg/kg/day. Vehicle control (AA+PEG400): […] CAI (AA+CAI): 20 mg/ml CAI, ig, 0.1 ml/100 g/day (20 mg/kg/day). Combination (AA+CAI+Dex): dexamethasone, 0.067 mg/kg/day (i.p.) plus CAI 20 mg/kg/day (p.o.). Normal volumes of left and right hind paw were measured before adjuvant injection. […]

The subject of series [2] is Kunming mice. The experiment in a line: Radiant heat test (tail-flick). The class given is in vivo. On the procedure: The radiant heat dolorimeter (Collumbus Instruments) is used in this model with the tail-flick mode and the exposure rate of 20. The latency periods (TFL) starting from the beginning of exposure to the tail-flick responses were recorded as the pain threshold. The exposure time lasted for 16 seconds.
Kunming mice (18-22 g, male) are tested for the basic pain threshold before the test with drug administration, and those with pain threshold longer than 16 seconds are excluded. The selected mice are divided into 4 groups with 15 animals per group.
(§2) Control group with dissolvent: 10 μl PEG400 was administered (ig) twice with the interval of 24 hours. The pain intensity test was carried out 8 hours after the second administration. 200 μl N.S. was injected (sc) 5 minutes before the test.
(§3) Morphine/PEG400 group: 10 μl PEG400 was administered (ig) twice with the interval of 24 hours. The pain intensity test was carried out 8 hours after the second administration. Morphine (2 mg/kg body weight) was injected (sc) 5 minutes before the test.
(§4) CAI/N.S. group: CAI (20 mg/kg body weight, 2 mg/ml) was administered (ig) twice with the interval of 24 hours. The pain intensity test was carried out 8 hours after the second administration. 200 μl N.S. was injected (sc) 5 minutes before the test.
The pain intensity test was carried out 8 hours after the second administration, morphine (2 mg/kg body weight) was injected (sc) 5 minutes before the test.
The pain threshold of each mouse was tested before and after morphine or N.S. injection. The values after drug administration minus those before drug administration were considered to be the changing index of pain threshold.

Series [3] has as its system Kunming mice. As to the kind of experiment: Hot plate test (analgesic effect). The class given is in vivo. The protocol:
Kunming mice (18-22 g, female) were randomly divided into 4 groups with 20 animals per group.
as §2, §3, §4
(§5) The pain intensity test was carried out 8 hours after the second administration. Morphine (2 mg/kg body weight) was injected (sc) 5 minutes before the test.
The mice were placed onto a hot plate (53±0.5° C.) and the latency periods (second) of hopping responses were recorded as the pain threshold index.
(Thermal pain tests record how soon the animal reacts.)

Series [4] relates to Kunming mice. The experiment in a line: Effect of CAI on drug addiction caused by morphine (naloxone-induced jumping). On the procedure: 160 Kunming mice (18-22 g, half male and half female) were divided into 4 groups randomly, with 40 mice per group:
Control group with solvent, PEG400/N.S. (10 μl/g/day PEG400, (ig), 4 days);
Group treated with CAI, CAI/N.S. (CAI is resolved in PEG400 to reach a final concentration of […], 20 mg CAI/kg/day was administered (ig) for 4 days, N.S. was taken according to morphine administration in table 1);
Group treated with morphine, PEG400/morphine (10 μl/g/day PEG400 was administered (ig) for 4 days, morphine was administered according to the table below);
4 hours after the morphine administration on the fifth day, animals of each group was injected (ip) with 1 mg/kg naloxone and then put into a tank (5000 ml) immediately. The jump frequency in 30 minutes was recorded. Two-factor analysis of variance by SPSS was performed to analyse the experiment results.

Series [5] deals with Kunming mice. The experiment in a line: Formalin test (analgesic effect). Type of series: in vivo. On the procedure:
320 Kunming mice (18-22 g, half male and half female) were divided into 4 groups randomly with 80 animals in each group.
Control group with dissolvent (PEG400/N.S.): 10 μl PEG400 was administered (ig) twice with the interval of 24 hours. The pain intensity test was carried out 8 hours after the second administration. 200 μl N.S. is injected (sc) 5 minutes before the test.
as §3, §4, §5
5 minutes after the morphine or N.S. injection, 20 μl 2% formalin was injected (sc) into the subplantar space of the hind paw. The animals were placed immediately in a glass cylinder hanging on a holder, with a mirror placed below with 30° slope to observe the paw responses. The pain responses of the animals with injected paws were recorded; a pain ranking was recorded as follows: 3=the injected paw is licked, bitten, or shaken; 2=the injected paw is elevated and is not in contact with any other surface; 1=the injected paw has little or no weight on it; 0=the injected paw is not favored. The duration of each of the 4 behavioral categories was recorded. The observation lasted for 15 minutes. A pain intensity score was calculated by multiplying the amount of time spent in each category by its assigned category score and adding these products together.

Regarding `CC(=O)O.NC(=O)c1nnn(Cc2cc(Cl)c(C(=O)c3ccc(Cl)cc3)c(Cl)c2)c1N` [CAI acetate], the “Inhibitory effect on serum levels of IL-1β (in words)” value in the series on IL-1β was “obvious and even more pronounced”. Further, the “Inhibitory effect on serum levels of TNF-α (in words)” value with TNF-α was “obvious and even more pronounced”.
On to `Cl.NC(=O)c1nnn(Cc2cc(Cl)c(C(=O)c3ccc(Cl)cc3)c(Cl)c2)c1N` [CAI hydrochlorate], for which the “Inhibitory effect on serum levels of IL-1β (in words)” value in the series with IL-1β was “obvious and even more pronounced”. Also, in the series with TNF-α, the “Inhibitory effect on serum levels of TNF-α (in words)” value is “obvious and even more pronounced”.
`C[C@@H]1C[C@H]2[C@@H]3CCC4=CC(=O)C=C[C@]4(C)[C@@]3(F)[C@@H](O)C[C@]2(C)[C@@]1(O)C(=O)CO` [dexamethasone, reference compound]: the “granulomatous tissue:bady weight ratio (mean ± std)” value in the series with rats was found to be 0.064 ± 0.00495. Besides, in the series with Kunming mice [1], the “Swelling intensity (mg) mean ± std” value is listed as 1.5 ± 0.4 mg. The “Primary paw oedema (%), mean ± std” value turned out to be 111.3 ± 13.6 % in the series on Wistar rats (1 d, CAI 20 mg/kg/day ig, Dex 0.067 mg/kg/day i.p.); 121.9 ± 16.0 % in the series with Wistar rats (2 d); 107.4 ± 12.5 % in the series with Wistar rats (5 d); 103.6 ± 14.0 % with Wistar rats (8 d); 100.3 ± 21.0 % with Wistar rats (11 d); 100.0 ± 11.3 % with Wistar rats (14 d). Further, the “Primary paw oedema (%), mean ± std” value was found to be 95.3 ± 15.7 % in the series with Wistar rats (17 d); 83.9 ± 24.0 % in the series on Wistar rats (20 d); 80.4 ± 17.8 % in the series on Wistar rats (23 d); 78.6 ± 23.1 % in the series on Wistar rats (26 d); 73.9 ± 18.0 % in the series on Wistar rats (29 d). The “Secondary paw oedema (%), mean ± std” value was 1.1 ± 1.0 % in the series on Wistar rats (14 d, right hind paw); 1.9 ± 1.4 % in the series on Wistar rats (17 d); 2.8 ± 0.9 % with Wistar rats (20 d); 4.6 ± 1.4 % with Wistar rats (23 d); 3.6 ± 1.7 % in the series with Wistar rats (26 d); 2.5 ± 1.7 % with Wistar rats (29 d).
In the case of `CN1CC[C@]23c4c5ccc(O)c4O[C@H]2[C@@H](O)C=C[C@H]3[C@H]1C5` [morphine, reference compound], the “Analgesic effect in radiant heat test (in words)” value with Kunming mice [2] (compared with the control group) is on record as “extended the pain threshold time very significantly”. Moreover, in the series on Kunming mice [2] (tail-flick latency after minus before drug, CAI 20 mg/kg ig twice, morphine 2 mg/kg sc), the “Pain threshold change (seconds, mean ± std)” value is 6.95 ± 5.69 s. Besides, in the series on Kunming mice [3] (hot plate 53±0.5° C., latency of hopping response, CAI 20 mg/kg ig twice, morphine 2 mg/kg sc), the “Pain threshold (sec, mean ± std)” value turned out to be 31.9 ± 12.1 s. Besides, the “Analgesic effect in hot plate test (in words)” value in the series with Kunming mice [3] (two-factor ANOVA) is “extends the pain response time very significantly”. For the same molecule, the “Mean number of jump” value in the series with Kunming mice [4] (jump frequency in 30 minutes after naloxone 1 mg/kg ip, CAI 20 mg/kg/day ig 4 days, morphine per Table 1, mean ± std) is on record as 41 ± 58. Besides, the “Addiction / withdrawal syndrome (in words)” value with Kunming mice [4] (naloxone-induced jumping, two-factor ANOVA vs PEG400/N.S.) was “causes obvious withdrawal syndrome”. The “Pain intensity score (mean ± std)” value in the series with Kunming mice [5] (2% formalin sc hind paw, 15 minutes observation, CAI 20 mg/kg ig twice, morphine 2 mg/kg sc) stood at 756 ± 441. Besides, the “Analgesic effect in formalin test (in words)” value in the series with Kunming mice [5] (pain scores compared with the control group) is on record as “decrease significantly”.

(Values after US20100041632A1, “USES OF THE CARBOXY-AMIDO-TRIAZOLE COMPOUNDS AND SALTS THEREOF” (priority 2006, published 2010).)
